According to patent US20220265770A1, “TREATING NEURODEGENERATIVE DISEASES WITH PROGRANULIN” (NEURODYN, INC., priority 2008, published 2022):
Entries after “also recorded” stand apart in the source; their conditions may differ.

How the values were obtained:
male CD-1 mice [1] = assay: Leg extension reflex following synthetic BSSG exposure; type: in vivo, mouse; settings: 100 mg/day synthetic BSSG for 15 weeks, then normal chow; weekly, week 0-32, vs control p<0.0001
Experimental: Three month old male CD-1 mice were fed 100 mg/day of synthetic BSSG for 15 weeks, then permitted to age with a diet of normal lab chow. Leg extension was measured weekly from the initiation of the experiment. Testing was performed as described in Wilson et al., 2004 and Wilson et al., 2005.
The leg extension reflex test was used as a measure of motor neuron dysfunction (Barneoud and Curet, 1999). This test was altered to discriminate more subtle behaviors, creating a scale from 0 to 4. […] This scale allows the measure of progression in a continuous manner over time. A score of 0-4 is assigned based on the response shown by the mouse as follows:
4: Complete extension of both legs (normal).
3: Two legs extended with some tremors and/or punching in a leg.
2: One leg extended, 1 retracted, or tremors in both legs.
1: One leg retracted, tremors in other leg.

male CD-1 mice [2] = assay: Open field motor activity (grid crossings) following synthetic BSSG exposure; type: in vivo, mouse; settings: same mice as Example 4; week 28 vs controls, p<0.05
Experimental: The same mice exposed to BSSG in Example 4 were used to analyze open field motor activity. *=p<0.05 (Student T-test).
For the open field motor activity analysis, mice were placed in a round open field (2 m diameter) for 5 minutes and movements were recorded using a video camera to measure emotionality and exploration (spontaneous motor activity) (Karl et al., 2003). Videos were replayed on a TV and a circular grid was overlaid on the TV screen. Grid crossings were recorded.

[3] = tested on: motor neurons in lumbar cord; assay: Motor neuron quantification (Nissl, ChAT, CTIP2, caspase-3) after 10 weeks BSSG; type: in vivo, mouse; settings: varying doses of synthetic BSSG for 10 weeks, aged 1 or 5 months on normal chow
Source text: Six month old male CD-1 mice were fed varying doses of synthetic BSSG for 10 weeks, then allowed to age for 1 month with a diet of normal chow prior to sacrifice (see FIG. 3, panels A-C). Motor neurons were quantified in lumbar cord, by Nissl staining and choline acetyltransferase (ChAT) immunohistochemistry (IHC), as shown in FIG. 3A. Motor neurons were quantified in motor cortex where neurons were detected by IHC against CTIP2 (highly expressed in corticospinal motor neurons), as shown in FIG. 3C. Motor neurons in the lumbar spinal cord of animals permitted to age for 5 months following the cessation of BSSG were quantified after Nissl staining, as shown in FIG. 3D (* P<0.01, ANOVA).
Lumbar spinal cord sections were stained with cresyl violet and ventral horn motor neurons were counted under a 40× objective lens. All motor neurons in the field of view were included in the results. Multiple sections (N=6) from each mouse were used. Counts were conducted on spinal cord sections that were at least 150 μm apart (in the rostral-caudal plane) ensuring that no motor neuron was counted twice. In addition, counts included all apparent motor neurons including motor neurons that may have appeared atrophic or damaged.
Active caspase-3 (Promega, Madison, Wis.) labeling was performed as follows. […] Sections were visualized using fluorescence microscopy. […]

progranulin expression = assay: In situ hybridization of progranulin expression in cervical spinal cord of BSSG fed mice; type: in vivo, mouse
Experimental: Adult male CD-1 mice were fed a diet of either normal chow or chow containing […] per day of synthetic BSSG. Following 10 weeks of feeding with BSSG-containing chow and a further month with normal lab chow, mice were killed and ISH using progranulin specific antisense riboprobes was performed on frozen sections of cervical spinal cord cut in trans-section. High levels of progranulin expression were detected in the anterior horn cells of the control mouse as shown by the section in FIG. 9A. […] A negative control section is shown in FIG. 9C, incubated with a sense probe.
Adult male CD-1 mice were fed a diet of chow containing 10, 100, or 1000 μg per day of synthetic BSSG. Following 10 weeks of feeding with BSSG-containing chow and a further month with normal lab chow, mice were killed and ISH using progranulin specific riboprobes was performed on frozen sections of cervical spinal cord cut in trans-section. […] Additionally, there is a more pronounced loss of progranulin expression per cell as BSSG exposure increases.

spinal motor neurons = assay: Spinal motor neuron counts and ChAT in BSSG challenged mice treated with PGRN lentivirus; type: in vivo, mouse
NSC-34 cells [4] = settings: literature (Tabata et al.); cited from earlier work
[5] = tested on: caudal primary motor neurons of zebrafish embryos; assay: Zebrafish ventral primary motor axon/nerve growth (znp1 immunostaining); type: in vivo
Source text: During the first day of zebrafish development, neuromuscular connections are restricted to the three primary motoneurons (CaP, MiP and RoP) per spinal cord hemisegment where they innervate three myotome areas that ultimately develop into body wall muscle. During the first the 24 hpf CaP axons project to establish the common pathway. This is the developmental period encompassed in FIGS. 27 and 28.
Development of ventral primary neurons were examined in whole mount embryos at 26-28 hpf and visualized by immunostaining with znp1 monoclonal antibody that labels primary motor neurons.
There is reduced incidence (P<0.001) of truncated neurons (FIG. 27, Panel D, white arrows) together with increased incidence (P<0.001) of early and late branching (FIG. 27, Panel E, white arrowheads) as shown in Table 2. Data sets were accumulated from 50 embryos (WT, progranulin MO, progranulin MO plus mRNA).
Fish husbandry: Wild type zebrafish were purchased from Aquatica Tropicals (Florida) and maintained on a 14 h/10 h light/dark cycle at 28.5° C. in a laboratory aquarium (Allentown Caging Equipment Co. Inc., Allentown, N.J.). Fish were fed twice daily. In the late afternoon of the day before eggs are required, fish were transferred to a net positioned towards the top of a holding tank and covered. In the morning, after the light cycle begins and spawning has stopped, the eggs that have fallen through the net were collected from the bottom of the tank. Embryos to be used for developmental studies were collected and staged by hours post fertilization (hpf). […]
Microinjection of Pgrn mRNA: For Pgrn mRNA over-expression and rescue experiments the vector was generated as follows: The full-length progranulin-a sequence was purchased from RZPD (Berlin, Germany) as clone UCDMp574E2318Q2 and subcloned into pcDNA3.1-V5/His vector (Invitrogen, Carlsbad, Calif.) using a forward primer that overlapped with the starter AUG a reverse primer that read through the termination codon. […]

NSC-34 cells [6] = assay: NSC-34 proliferation/survival with granulin epithelin modules (CyQUANT NF); type: cell-based; settings: 50 or 100 ng/ml, 13 days, RPMI without serum
Experimental: NSC 34 cells (5000 cell/well) were plated in 96 well plates using 100 ul of DMEM/10% FBS. The following day, the medium was removed and replaced with 100 ul of RPMI (without serum) containing: 0, 50 or 100 ng/ml of grn D or grn F. Cultures were incubated for 13 days following which cell proliferation/survival was determined using the CyQUANT® NF (kit #C35006) assay.
The CyQUANT® NF assay is based on measurement of cellular DNA content via fluorescent dye binding. The extent of proliferation/survival is determined by comparing fluorescence intensity for NSC-34 cells treated with GEMs (50 and 100 ng) relative to untreated controls (Ong).
As per the manufacturers instructions, the protocol included aspiration of growth medium, replacement with 100 ul of dye binding solution per well, incubation for 30 minutes following which the fluorescence intensity of each sample was measured using a fluorescence microplate reader with excitation at ˜485 nm and emission detection at ˜530 nm (FIG. 22). The immortalized motor neuron cell line (NSC-34) responded to incubation with grn F and grn D with either proliferation/survival (grn F) or no effect (grn D) similar to the response of extra neuronal cells incubated in the presence of these GEM's (described in: Tolkatchev D. et al., Protein Sci. 17:711-724, 2008).

[7] = Table 2, average number of motor axon/nerve defects per affected side, n=50, 10 ng PgrnA MO, 100 pg mRNA, 26-28 hpf

In the case of `CC[C@H](CC[C@@H](C)[C@H]1CC[C@H]2[C@@H]3CC=C4C[C@@H](O[C@@H]5O[C@H](CO)[C@@H](O)[C@H](O)[C@H]5O)CC[C@]4(C)[C@H]3CC[C@]12C)C(C)C` [BSSG, β-sitosterol β-D-glucoside], the “leg extension reflex (score 0-4)” value (male CD-1 mice [1]) is reported as “decline in leg extension reflex”, the “open field motor activity (grid crossing)” value (male CD-1 mice [2]) is reported as “significantly decreased movement” and the “motor neurons in lumbar spinal cord” value [3] is reported as “Progressive loss of motor neurons; also recorded: dose dependent loss of motor neuron health”. For the same molecule, the “neuropathology and loss of progranulin expressing cells in cervical spinal cord” value (progranulin expression; 10, 100 or 1000 μg per day BSSG, 10 weeks plus 1 month normal chow) was “more pronounced neuropathology”, the “progranulin expression in anterior horn cells of cervical spinal cord (ISH)” value (progranulin expression; 1000 μs per day synthetic BSSG 10 weeks plus 1 month normal chow) was “decreased in intensity and was observed in fewer cells of the anterior horn” and the “numbers of ChAT positive motor neurons” value (spinal motor neurons; control (saline treated) BSSG exposed mice) was “appeared to be reduced”. For the same molecule, the “choline acetyl transferase (ChAT) activity in anterior horn cells” value (spinal motor neurons; saline treated BSSG exposed mice relative to all other treatment groups) was “decreased activity” and the “cytotoxicity in NSC-34 cell line” value (NSC-34 cells [4]) was “cause cytotoxicity”.

In the case of “PGRN-MO2: morpholino to 5′UTR of zebrafish pgrn-a, 5′-GAGCAGGTGGATTTGTGAACAGCGG-3′ (all phosphorodiamidate morpholino (PMO))”, the Branching [5, 7] is reported as 1.0 ± 0.19*c, the Truncation [5, 7] is reported as 3.02 ± 0.31***a and the “primary motor neuron phenotype” value ([5]; whole mount embryos 26-28 hpf, znp1) is reported as “range of morphant phenotypes”.

B1: grn D: granulin epithelin module, SEQ ID NO: 10, His-tagged (protein)
chain: AMDIGCDQHTSCPVGQTCCPSLGGSWACCQLPHAVCCEDRQHCCPAGYTCNVKARSCEKLAAALEHHHHHH
modifications: His tag
With B1 the “cell proliferation/survival (CyQUANT NF fluorescence)” value (NSC-34 cells [6]) was “no effect”.
